Patent US20170065667A1, “METHODS FOR SYNCHRONIZATION OF ESTROUS CYCLES AND OVULATION FOR FIXED TIME ARTIFICIAL INSEMINATION IN CATTLE” (Parnell Technologies Pty Ltd., priority 2014, published 2017)
Where “and” joins values, the source holds several entries; their conditions need not be identical. Equal entries are not always repeated.

Tested on: lactating Holstein cows
Assay: Experiment 1: pregnancies per AI (P/AI) after one vs. two cloprostenol sodium injections in Double-Ovsynch, FTAI
Type: in vivo, cattle
Conditions: for P/AI: quartiles 2, 3 and 4 combined
Method: An experiment was conducted to determine the effectiveness of the exogenous administration of hormones for synchronizing the estrous cycles of lactating dairy cattle and resulting pregnancy rates subsequent to FTAI. A total of 373 lactating Holstein cows (172 primiparous, 201 multiparous) were synchronized with a Double-Ovsynch program comprising a first or presynchronization Ovsynch phase followed by a second Ovsynch phase. All animals were synchronized using a GnRH composition (about 100 mcg of gonadorelin acetate per mL, GONAbreed®, Parnell Technologies Pty Ltd, Alexandria, Australia) and a PGF2α analog composition (about 250 mcg of cloprostenol sodium per mL, estroPLAN®, Parnell Technologies Pty Ltd, Alexandria, Australia). The first Ovsynch phase began at about 51 to about 57 days in milk where the cows received a first 1 mL intramuscular injection of a gonadorelin acetate composition. At about 58 to about 64 days in milk, the cows received a first 2 mL intramuscular injection of a cloprostenol sodium composition. At about 61 to about 67 days in milk, the cows received a second 1 mL intramuscular injection of a gonadorelin acetate composition concluding the first Ovsynch phase. The animals were then synchronized with a second Ovsynch phase comprising an Ovsynch-56 protocol beginning at about 68 to about 74 days in milk where the cows received a third 1 mL intramuscular injection of gonadorelin acetate composition. At about 75 to about 81 days in milk, the animals received a second 2 mL intramuscular injection of a cloprostenol sodium composition. At about 77 to about 83 days in milk (about 56 hours after the second injection of a cloprostenol sodium composition), the animals received a fourth 1 mL intramuscular injection of a gonadorelin acetate composition. And at about 78 to about 84 days in milk (about 16 hours after the fourth injection of the gonadorelin acetate composition), the animals receive AI, concluding the second Ovsynch phase. […] The experimental protocol is shown in the diagram of FIG. 2. Statistical analyses were performed with SAS (SAS Institute, 2006). Variables with a binomial distribution, such as P/AI and percentage of animals with CL regression, were analyzed by logistic regression using the LOGISTIC procedure. One-tailed comparisons were utilized throughout the study for comparison of the effect of an additional cloprostenol sodium injection on CL regression and animals pregnant to the FTAI. Continuous variables were analyzed using ANOVA with logistic regression utilized to compare the relationship between circulating P4 and the binomial traits. Animals with ≦2.0 ng/mL P4 on day of PGF were removed from the analysis (n=29; 13 primiparous, 16 multiparous) due to lack of synchronization to the double Ovsynch protocol. Therefore, all analyses were done with a total of 344 lactating dairy cows (n=159 primiparous; n=185 multiparous). Statistical differences were considered significant for P≦0.05 and as a tendency for P≦0.15.

O=C(O)CCC/C=C\CC1C(O)CC(O)C1/C=C/C(O)COc1cccc(Cl)c1 (stereo not shown) [cloprostenol sodium]
Effect of PGF, relative difference in P/AI (two minus one, divided by one) (multiparous): 18.9% (P = 0.15)
Pregnant/AI, % (n/n) (one injection, Quartile 1, [P4] 2.0-4.8 at first injection): 31.0% and 31.0 (13/42) %
Pregnant/AI, % (n/n) (one injection, Quartile 2, [P4] 4.9-6.7): 40.0% and 40.0 (18/45) %
Pregnant/AI, % (n/n) (one injection, Quartile 3, [P4] 6.8-8.7): 47.7% and 47.7 (21/44) %
Pregnant/AI, % (n/n) (one injection, Quartile 4, [P4] 8.8-12): 44.4% and 44.4 (20/45) %
percentage of cows pregnant/AI (P/AI) (one injection, multiparous): 37.5% (36/96)
percentage of cows pregnant/AI (P/AI) (one injection, overall): 40.1% (72/176)
percentage of cows pregnant/AI (P/AI) (one injection, primiparous): 45.0% (36/80)
P/AI (one injection): 44.0%
Effect of PGF, relative difference in P/AI (two minus one, divided by one) (overall): 15.2% (P = 0.13)
Effect of PGF, relative difference in P/AI (two minus one, divided by one) (primiparous): 7.11% (P = 0.35)
Pregnant/AI, % (n/n) (two injections, Quartile 1, [P4] 2.0-5.4 at first injection): 31.7% and 31.7 (13/41) %
Pregnant/AI, % (n/n) (two injections, Quartile 2, [P4] 5.5-7.0): 46.7% and 46.7 (21/45) %
Pregnant/AI, % (n/n) (two injections, Quartile 3, [P4] 7.1-8.6): 55.8% and 55.8 (24/43) %
Pregnant/AI, % (n/n) (two injections, Quartile 4, [P4] 8.7-12): 56.4% and 56.4 (22/39) %
percentage of cows pregnant/AI (P/AI) (two injections, multiparous): 44.6% (41/89)
percentage of cows pregnant/AI (P/AI) (two injections, overall): 46.2% (80/168)
percentage of cows pregnant/AI (P/AI) (two injections, primiparous): 48.2% (39/79)
P/AI (two injections): 52.8%
